Test system: SK-OV-3 multi-cell spheroids, viability
Test: Anticancer human tumor SK-OV-3 cell line growth inhibition [IpAb];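 as to viability, T/C: viability read after seven days of drug exposure; percent of DMSO vehicle control luminescence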
Settings: for IC50: curve of first compound; for viability, T/C: stronger effect = lower value
Text: Combinatorial screen of targeted agents with ipatasertib and abemaciclib in multi-cell type tumor spheroids
A high-throughput screen of multi-cell type tumor spheroids was designed to identify active combinations of targeted small molecules and ipatasertib or abemaciclib. Complex spheroids include a stromal component modeled by human endothelial cells (HUVEC) and fibroblasts modeled by human mesenchymal stem cells (MSCs). The concentration ranges selected for each drug and investigational agent were based upon clinically achievable concentrations if the clinical Cmax of the agent was known.
Compounds. The drugs and investigational agents: ipatasertib (NSC767898), abemaciclib(NSC768073), selumetinib (NSC741078), trametinib (758246), adavosertib (NSC754352), everolimus (NSC733504), sapanisertib (NSC764658), vemurafenib (NSC761431), venetoclax (NSC766270), copanlisib (NSC809693), apelisib (NSC765974), palbociblib (NSC758247), vemurafenib (NSC761431), dabrafenib (NSC764134), ravoxertinib (NSC781343), BMS-387032 (NSC767048), sotorasib (NSC818433), talazoparib (NSC767125) and afursertib (NSC778305), were obtained from the National Cancer Institute (NCI) Developmental Therapeutics Program Chemical Repository. The FDA-approved anticancer drug set is available from the NCI Developmental Therapeutics Program. […] The stock solutions were prepared in dimethyl sulfoxide (DMSO, Sigma-Aldrich, St. Louis, MO, cat. D2650) at 800-fold the tested concentration and stored at -70 degrees C prior to their use. All drugs and investigational agents were tested over a range starting from a high concentration at or near the clinical Cmax and decreasing in half-log increments. If the clinical Cmax for an agent had not been determined, the highest concentration tested was 10 microM.
NCI60 Cell Culture. NCI60 cell lines were obtained from the NCI Developmental Therapeutics Program Tumor Repository. For each lot of cells, the Repository performed Applied Biosystems AmpFLSTR Identifiler testing with PCR amplification to confirm consistency with the published Identifier STR profile for each cell line. Cells were kept in continuous culture for no more than 20 passages. The optimal seeding densities for each of the cell lines at each time point assessed were determined prior to performing the concentration response studies. Briefly, the NCI60 human tumor lines were grown as monolayers in RPMI 1640 medium supplemented with 10% FBS and 2 mmol/L L-glutamine.
An additional 9 lines were from the NCI60 cell line panel including MDA-MB-231 breast carcinoma, MDA-MB-468 breast carcinoma, MCF7 breast carcinoma, Hs578T breast carcinoma, MALME-3M melanoma, SK-MEL-2 melanoma, SK-OV-3 ovarian carcinoma, DU-145 prostate carcinoma, PC-3 prostate carcinoma, all cell lines along with major genetic alterations are listed on Table 2. Pooled donor human umbilical vein endothelial cells (HUVEC, Lonza, cat. CC-2519) and human mesenchymal stem cells (hMSC, Lonza, cat. PT-2501) were purchased from Lonza (Walkersville, MD).
PDMR cell lines were grown in complete medium (DC medium): Dulbecco's modified Eagle's medium (DMEM)/F12 supplemented with 5% fetal bovine serum (FBS), 2 mM L-glutamine, 100 U/mL penicillin and 100 µg/ml streptomycin, 0.4 µg/ml hydrocortisone, 10 ng/ml epidermal growth factor (EGF) recombinant human protein, 24 µg/mL adenine, and 0.1 mg/mL primocin. During culture from frozen stock vials, PDMR cells were cultured in the same medium containing 10 µM Y-27632 (see Table 3). The PDCs were cultured in complete DMEM/F12 media without 10 microM Y-27632 dihydrochloride for at least two passages prior to the screen. The pooled donor HUVEC and hMSC were cultured in endothelial cell growth medium 2 (PromoCell, Heidelberg, Germany, cat. C-22011) and mesenchymal stem cell growth medium 2 (PromoCell, cat. C-28009), respectively. For all experiments, HUVEC and hMSC were used at passages </=5.
[…]

[1] = second compound 0.1 µM, first compound 0.0316 µM
[2] = second compound 0.1 µM, first compound 0.1 µM
[3] = second compound 0.1 µM, first compound 0.316 µM
[4] = second compound 0.1 µM, first compound 1 µM
[5] = second compound 0.1 µM, first compound 3.16 µM
[6] = second compound 0.1 µM, first compound 10 µM
[7] = second compound 0.316 µM, first compound 0.0316 µM
[8] = second compound 0.316 µM, first compound 0.1 µM
[9] = second compound 0.316 µM, first compound 0.316 µM
[10] = second compound 0.316 µM, first compound 1 µM
[11] = second compound 0.316 µM, first compound 3.16 µM
[12] = second compound 0.316 µM, first compound 10 µM
[13] = second compound 1 µM, first compound 0.0316 µM
[14] = second compound 1 µM, first compound 0.1 µM
[15] = second compound 1 µM, first compound 0.316 µM
[16] = second compound 1 µM, first compound 1 µM
[17] = second compound 1 µM, first compound 3.16 µM
[18] = second compound 1 µM, first compound 10 µM
[19] = second compound 3.16 µM, first compound 0.0316 µM
[20] = second compound 3.16 µM, first compound 0.1 µM
[21] = second compound 3.16 µM, first compound 0.316 µM
[22] = second compound 3.16 µM, first compound 1 µM
[23] = second compound 3.16 µM, first compound 3.16 µM
[24] = second compound 3.16 µM, first compound 10 µM
[25] = second compound 10 µM, first compound 0.0316 µM
[26] = second compound 10 µM, first compound 0.1 µM
[27] = second compound 10 µM, first compound 0.316 µM
[28] = second compound 10 µM, first compound 1 µM
[29] = second compound 10 µM, first compound 3.16 µM
[30] = second compound 10 µM, first compound 10 µM

Compound	IC50 (second compound 0.1 µM) [nM]	IC50 (second compound 0.316 µM) [nM]	IC50 (second compound 1 µM) [nM]	IC50 (second compound 3.16 µM) [nM]	IC50 (second compound 10 µM) [nM]	viability, T/C [1] [%]	viability, T/C [2] [%]	viability, T/C [3] [%]	viability, T/C [4] [%]	viability, T/C [5] [%]	viability, T/C [6] [%]	viability, T/C [7] [%]	viability, T/C [8] [%]	viability, T/C [9] [%]	viability, T/C [13] [%]	viability, T/C [14] [%]	viability, T/C [19] [%]	viability, T/C [20] [%]	viability, T/C [25] [%]	viability, T/C [26] [%]	other results
C=CCn1c(=O)c2cnc(Nc3ccc(N4CCN(C)CC4)cc3)nc2n1-c1cccc(C(C)(C)O)n1 + CC(C)NCC(C(=O)N1CCN(c2ncnc3c2C(C)CC3O)CC1)c1ccc(Cl)cc1	59.1	< 31.6	< 31.6	< 31.6	< 31.6	66.1	36.5	10	7.27	4.83	6.07	37.5	24.6	6.94	19.2	13.9	13.8	8.92	8.99	4.85	viability, T/C [10]: 7.44%; viability, T/C [11]: 6.92%; viability, T/C [12]: 6.99%; viability, T/C [15]: 4.18%; viability, T/C [16]: 6.74%; viability, T/C [17]: 7.21%; viability, T/C [18]: 6.84%; viability, T/C [21]: 2.61%; viability, T/C [22]: 3.21%; viability, T/C [23]: 8.27%; viability, T/C [24]: 5.57%; viability, T/C [27]: 1.17%; viability, T/C [28]: 2.53%; viability, T/C [29]: 4.96%; viability, T/C [30]: 3.52%
CC(C)n1nc(-c2ccc3oc(N)nc3c2)c2c(N)ncnc21 + CC(C)NCC(C(=O)N1CCN(c2ncnc3c2C(C)CC3O)CC1)c1ccc(Cl)cc1	0.623	< 0.316	< 0.316	< 0.316	< 0.316	8.65	6.5					5.66	4.86		4.57	4.78	3.82	3.94	2.31	3.23	viability, T/C (second compound 0.1 µM, first compound 0.000316 µM): 59.2%; viability, T/C (second compound 0.1 µM, first compound 0.001 µM): 43.4%; viability, T/C (second compound 0.1 µM, first compound 0.00316 µM): 26.4%; viability, T/C (second compound 0.1 µM, first compound 0.01 µM): 13.7%; viability, T/C (second compound 0.316 µM, first compound 0.000316 µM): 32%; viability, T/C (second compound 0.316 µM, first compound 0.001 µM): 24.6%; viability, T/C (second compound 0.316 µM, first compound 0.00316 µM): 19.7%; viability, T/C (second compound 0.316 µM, first compound 0.01 µM): 9.18%; viability, T/C (second compound 1 µM, first compound 0.000316 µM): 18.7%; viability, T/C (second compound 1 µM, first compound 0.001 µM): 14.1%; viability, T/C (second compound 1 µM, first compound 0.00316 µM): 12%; viability, T/C (second compound 1 µM, first compound 0.01 µM): 7.26%; viability, T/C (second compound 3.16 µM, first compound 0.000316 µM): 14.5%; viability, T/C (second compound 3.16 µM, first compound 0.001 µM): 12.7%; viability, T/C (second compound 3.16 µM, first compound 0.00316 µM): 9.97%; viability, T/C (second compound 3.16 µM, first compound 0.01 µM): 5.51%; viability, T/C (second compound 10 µM, first compound 0.000316 µM): 8.69%; viability, T/C (second compound 10 µM, first compound 0.001 µM): 9.03%; viability, T/C (second compound 10 µM, first compound 0.00316 µM): 6.95%; viability, T/C (second compound 10 µM, first compound 0.01 µM): 3.56%
CC1(C)CCC(CN2CCN(c3ccc(C(=O)NS(=O)(=O)c4ccc(NCC5CCOCC5)c([N+](=O)[O-])c4)c(Oc4cnc5[nH]ccc5c4)c3)CC2)=C(c2ccc(Cl)cc2)C1 + CC(C)NCC(C(=O)N1CCN(c2ncnc3c2C(C)CC3O)CC1)c1ccc(Cl)cc1	3200	< 31.6	< 31.6	< 31.6	< 31.6	64.3	70.6	68	58.6	51.2	26.1	33.6	38.2	31.7	21.1	27.3	15.5	15.3	7.25	9.06	viability, T/C [10]: 31.6%; viability, T/C [11]: 28%; viability, T/C [12]: 18.6%; viability, T/C [15]: 21.6%; viability, T/C [16]: 18.9%; viability, T/C [17]: 17%; viability, T/C [18]: 13.7%; viability, T/C [21]: 14.2%; viability, T/C [22]: 13.9%; viability, T/C [23]: 11.1%; viability, T/C [24]: 7.06%; viability, T/C [27]: 8.25%; viability, T/C [28]: 6.89%; viability, T/C [29]: 5.18%; viability, T/C [30]: 4.58%
CCCS(=O)(=O)Nc1ccc(F)c(C(=O)c2c[nH]c3ncc(-c4ccc(Cl)cc4)cc23)c1F + CC(C)NCC(C(=O)N1CCN(c2ncnc3c2C(C)CC3O)CC1)c1ccc(Cl)cc1	4770	< 31.6	< 31.6	< 31.6	< 31.6	70.2	74.1	67.5	73.9	64.3	23.3	38.8	36.5	38.1	20.5	22.4	17.1	18.6	8.73	9.5	viability, T/C [10]: 36.1%; viability, T/C [11]: 28.2%; viability, T/C [12]: 13.9%; viability, T/C [15]: 21.3%; viability, T/C [16]: 17.9%; viability, T/C [17]: 15.3%; viability, T/C [18]: 6.91%; viability, T/C [21]: 15.7%; viability, T/C [22]: 15.7%; viability, T/C [23]: 15.1%; viability, T/C [24]: 6.79%; viability, T/C [27]: 9.69%; viability, T/C [28]: 8.84%; viability, T/C [29]: 9.71%; viability, T/C [30]: 2.52%

Source: PubChem BioAssay AID2060325 (Molecular Pharmacology Branch, DTP, NCI, 2025)
